Results as given in US20240108008A1, “COMPOSITIONS COMPRISING MESOSULFURON-METHYL AND TEHP” (BAYER AKTIENGESELLSCHAFT, priority 2020, published 2024).

Assays:
TRZAW, winter wheat = assay: Greenhouse selectivity trials, wheat crop injury post-emergence; assay type: in vivo, winter wheat (variety: Dekan); conditions: 2 kg of TEHP per hectare, in combination with mesosulfuron-methyl and/or a salt thereof
Excerpt: The 00 damage (injury) indicated refers to the maximum damage observed in the respective crop.

harmful plants = assay: Adjuvant effect on performance of mesosulfuron-methyl; assay type: in vivo; conditions: same application rate as tri(butoxyethyl) phosphate (TBEP)

## CCCCC(CC)COP(=O)(OCC(CC)CCCC)OCC(CC)CCCC (centres unmarked) [TEHP, Tris(2-ethylhexyl) phosphate]
TRZAW, winter wheat
  phytotoxic effects in crop plants such as wheat: significant phytotoxic effects
Harmful plants
  effects as adjuvant in comparison to TBEP: superior
